# From PubChem BioAssay (NCI)
#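 Cells were grown in 96-well plates and exposed to each compound for 48 hours at five concentrations; endpoints were interpolated linearly between bracketing concentrations, or set to the highest concentration if not reached. GI50 is the concentration that inhibits growth by half. At the TGI there is no net growth.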
# How the values were obtained:
# Assay in all cases: inhibition of tumour cell growth, NCI panel, 48 h
# ACHN renal = system: ACHN renal
# A549 NSCLC = system: A549 NSCLC
# NCI-H23 lung = system: NCI-H23 lung
# NCI-H226 lung = system: NCI-H226 lung
# MDA-MB-231 breast = system: MDA-MB-231 breast
# SNB-75 CNS = system: SNB-75 CNS
# SF-268 CNS = system: SF-268 CNS
# SW-620 colon = system: SW-620 colon
# HOP-92 NSCLC = system: HOP-92 NSCLC
# SR leukemia = system: SR leukemia
# HCT-15 colon = system: HCT-15 colon
# T-47D breast = system: T-47D breast
# SK-MEL-5 melanoma = system: SK-MEL-5 melanoma
# SNB-19 CNS = system: SNB-19 CNS
# UACC-257 melanoma = system: UACC-257 melanoma
# A498 renal = system: A498 renal
# LOX IMVI melanoma = system: LOX IMVI melanoma
# UO-31 renal = system: UO-31 renal
# NCI-H460 lung = system: NCI-H460 lung
# TK-10 renal = system: TK-10 renal
# SF-295 CNS = system: SF-295 CNS
# KM12 colon = system: KM12 colon
# COLO 205 colon = system: COLO 205 colon
# RXF 393 renal = system: RXF 393 renal
# DU-145 prostate = system: DU-145 prostate
# K-562 leukemia = system: K-562 leukemia
# MALME-3M melanoma = system: MALME-3M melanoma
# NCI-H522 lung = system: NCI-H522 lung
# HCC-2998 colon = system: HCC-2998 colon
smiles,measurement,setting,value
CN1CCN(Cc2ccc(NC(=O)c3cncc(C#Cc4cnc5[nH]ncc5c4)c3)cc2C(F)(F)F)CC1,GI50,ACHN renal,888 nM
same,TGI,ACHN renal,10.8 µM
same,GI50,A549 NSCLC,4.31 µM
same,TGI,A549 NSCLC,39.5 µM
same,GI50,NCI-H23 lung,2280 nM
same,TGI,NCI-H23 lung,16.6 µM
same,GI50,NCI-H226 lung,704 nM
same,TGI,NCI-H226 lung,9.53 µM
same,GI50,MDA-MB-231 breast,1110 nM
same,TGI,MDA-MB-231 breast,6.55 µM
same,GI50,SNB-75 CNS,3.4 µM
same,TGI,SNB-75 CNS,18.3 µM
same,GI50,SF-268 CNS,2540 nM
same,TGI,SF-268 CNS,16.8 µM
same,GI50,SW-620 colon,1650 nM
same,TGI,SW-620 colon,16.2 µM
same,GI50,HOP-92 NSCLC,1320 nM
same,TGI,HOP-92 NSCLC,6.02 µM
same,GI50,SR leukemia,851 nM
same,TGI,SR leukemia,11.4 µM
same,GI50,HCT-15 colon,2970 nM
same,TGI,HCT-15 colon,13.6 µM
same,GI50,T-47D breast,3.2 µM
same,TGI,T-47D breast,23 µM
same,GI50,SK-MEL-5 melanoma,2710 nM
same,TGI,SK-MEL-5 melanoma,12.6 µM
same,GI50,SNB-19 CNS,8.72 µM
same,TGI,SNB-19 CNS,21.4 µM
same,GI50,UACC-257 melanoma,2860 nM
same,TGI,UACC-257 melanoma,17 µM
same,GI50,A498 renal,1960 nM
same,TGI,A498 renal,15 µM
same,GI50,LOX IMVI melanoma,618 nM
same,TGI,LOX IMVI melanoma,2380 nM
same,GI50,UO-31 renal,3.23 µM
same,TGI,UO-31 renal,10.8 µM
same,GI50,NCI-H460 lung,1300 nM
same,TGI,NCI-H460 lung,13.9 µM
same,GI50,TK-10 renal,3.45 µM
same,TGI,TK-10 renal,17.9 µM
same,GI50,SF-295 CNS,3.13 µM
same,TGI,SF-295 CNS,16.3 µM
same,GI50,KM12 colon,107 nM
same,TGI,KM12 colon,12.1 µM
same,GI50,COLO 205 colon,1870 nM
same,TGI,COLO 205 colon,13.2 µM
same,GI50,RXF 393 renal,612 nM
same,TGI,RXF 393 renal,5.68 µM
same,GI50,DU-145 prostate,1540 nM
same,TGI,DU-145 prostate,16.4 µM
same,TGI,K-562 leukemia,> 100 µM
same,GI50,MALME-3M melanoma,422 nM
same,TGI,MALME-3M melanoma,2810 nM
same,GI50,NCI-H522 lung,1000 nM
same,TGI,NCI-H522 lung,11.3 µM
same,GI50,HCC-2998 colon,4.51 µM
same,TGI,HCC-2998 colon,18.6 µM
